Measurements as given in patent publication US20180332852A1, “Increased Almond Yields with Brassinosteroid Application” (Repar Corporation, priority 2017, published 2018).

Tests used:
[1] = tested on: non Pareil almond tree; assay: Experiment 2: effects of HBR on nut size and fruit set in almond trees; assay type: in vivo, Prunus dulcis; settings: 1 ppm HBR sprayed two weeks after full bloom; final fruit set at harvest
Description: The effects of HBR on nut size and fruit set were studied in a population of 20 year old almond trees in Paine, Region 6 of Chile. The experimental design used a randomized block pattern with 10 replications of each experimental condition. Each experimental unit was a shoot of a non […] almond tree which was pollinated by bees in Solano and Carmel cultivars. Sufficient bee colonies were used for pollination of the orchard, including trees not receiving an experimental treatment. Flowers at full bloom were tallied and two weeks later the test branches were sprayed with either a control containing just water, a solution containing HBR at a rate of 1 ppm, a 10 ppm solution of HBR, or a solution of 10 ppm HBR and 10 ppm CPPU. Final fruit set on each test branch was taken at harvest. The percentage of fruit set was calculated by dividing the number of fruit per branch by the number of flowers counted before treatment and multiplying the result by 100.

[2] = tested on: Branches of Carmel cultivars (almond); assay: Experiment 3: pollen germination, pollen tube length and fruit set after treatment during flowering; assay type: in vivo, Prunus dulcis; settings: percent of flowers containing germinated pollen, versus control
Experimental: Branches of Carmel cultivars were selected from a mature almond orchard further comprising Solando and Non […] cultivars. During flowering, the selected branches received either a brassinosteroid treatment (BL, EBL, or HBR) (FIGS. 1, 2, and 3) or a gibberellic acid (FIG. 4) treatment. Four hours after treatment the percent of flowers which contained germinated pollen was determined. Twenty-four hours after treatment the length of each pollen tube was measured. Finally, fruit set was tabulated 50 days after fertilization. Results across the brassinosteroids were similar. […] Fruit set at 50 days after flowering was greater in the BR group than either GA3 or control.

[3] = diluted solution; pH should be no greater than 7.0, optimally between 4.0 and 5.0; cited from earlier work

SMILES: CC[C@@H](C(C)C)C(O)C(O)[C@@H](C)[C@H]1CC[C@H]2[C@@H]3COC(=O)[C@H]4C[C@H](O)[C@H](O)C[C@]4(C)[C@H]3CC[C@]12C (stereo in doubt) [HBR, homobrassinolide]
- increase of fruit set over control [1]: 21.1%
- pollen germination after four hours [2]: most effective treatment
- stability at alkaline pH levels [3]: not stable
